Patent US10167284B2, “Spirocyclic compounds as agonists of the muscarinic M1 receptor and/or M4 receptor” (HEPTARES THERAPEUTICS LIMITED, priority 2015, dated 2019)

How the values were obtained:
[1] = molecular target: T1, human muscarinic M1 receptor (Homo sapiens, UniProt P11229); experiment: Alphascreen Surefire phospho-ERK1/2 functional assay, M1; type: cell-based; details: for EC50 / M1 % Emax cf. ACh: CHO cells stably expressing human M1; for EC50: phospho-ERK1/2, read-out: pEC50 M1 (converted); for Emax: CHO, read-out: M1 % Emax cf. ACh, CHO cells stably expressing human M1; for Emax / M1 % Emax cf. ACh: Emax relative to ACh
T1 construct: expressed in transfected cells
T1 sequence (P11229 1-460): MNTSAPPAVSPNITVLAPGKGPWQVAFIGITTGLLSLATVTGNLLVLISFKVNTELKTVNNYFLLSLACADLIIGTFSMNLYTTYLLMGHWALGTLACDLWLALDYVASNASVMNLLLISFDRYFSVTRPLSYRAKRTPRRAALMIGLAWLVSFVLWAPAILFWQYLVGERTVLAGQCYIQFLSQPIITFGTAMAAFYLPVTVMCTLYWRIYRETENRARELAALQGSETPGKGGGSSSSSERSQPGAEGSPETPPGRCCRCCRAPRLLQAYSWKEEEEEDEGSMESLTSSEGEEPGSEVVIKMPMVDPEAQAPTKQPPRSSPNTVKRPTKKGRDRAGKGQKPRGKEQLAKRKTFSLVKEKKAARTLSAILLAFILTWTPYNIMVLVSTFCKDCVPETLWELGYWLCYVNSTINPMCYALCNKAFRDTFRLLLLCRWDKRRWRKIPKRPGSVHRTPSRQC
Description: (§1) CHO cells stably expressing the human muscarinic M1, M2, M3 or M4 receptor were plated (25K/well) onto 96-well tissue culture plates in MEM-alpha+10% dialysed FBS. Once adhered, cells were serum-starved overnight. Agonist stimulation was performed by the addition of 5 μL agonist to the cells for 5 min (37° C.). Media was removed and 50 μL of lysis buffer added. After 15 min, a 4 μL sample was transferred to 384-well plate and 7 μL of detection mixture added. Plates were incubated for 2 h with gentle agitation in the dark and then read on a PHERAstar plate reader.
(§2) pEC50 and Emax figures were calculated from the resulting data for each receptor subtype.

[2] = molecular target: T2, human muscarinic M2 receptor (Homo sapiens, UniProt P08172); experiment: Alphascreen Surefire phospho-ERK1/2 functional assay, M2; details: for Emax: CHO, read-out: M2 % Emax cf. ACh, CHO cells stably expressing human M2; for Emax / M2 % Emax cf. ACh: Emax relative to ACh; for EC50: pEC50 M2, CHO cells stably expressing human M2; for EC50 / pEC50 M2: phospho-ERK1/2; for M2 % Emax cf. ACh / pEC50 M2: CHO cells stably expressing human M2
T2 sequence (P08172 1-466): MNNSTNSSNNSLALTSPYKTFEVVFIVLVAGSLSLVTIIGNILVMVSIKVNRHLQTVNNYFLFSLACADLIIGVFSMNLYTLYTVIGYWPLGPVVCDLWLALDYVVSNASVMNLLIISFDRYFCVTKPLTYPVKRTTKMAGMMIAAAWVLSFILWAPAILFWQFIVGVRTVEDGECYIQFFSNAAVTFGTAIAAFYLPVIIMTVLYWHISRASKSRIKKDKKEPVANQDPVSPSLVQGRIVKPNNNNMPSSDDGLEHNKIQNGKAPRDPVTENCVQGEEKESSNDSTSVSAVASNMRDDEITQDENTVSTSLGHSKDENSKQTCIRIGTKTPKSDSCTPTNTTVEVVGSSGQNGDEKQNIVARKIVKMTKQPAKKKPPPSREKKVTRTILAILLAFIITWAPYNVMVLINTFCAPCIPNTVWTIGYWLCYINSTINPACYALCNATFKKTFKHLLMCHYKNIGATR
Description: as §1, §2

[3] = molecular target: T3, human muscarinic M4 receptor (Homo sapiens, UniProt P08173); experiment: Alphascreen Surefire phospho-ERK1/2 functional assay, M4; type: cell-based; details: for EC50 / M4 % Emax cf. ACh: CHO cells stably expressing human M4; for EC50: phospho-ERK1/2, read-out: pEC50 M4 (converted); for Emax: CHO, read-out: M4 % Emax cf. ACh, CHO cells stably expressing human M4; for Emax / M4 % Emax cf. ACh: Emax relative to ACh
T3 construct: expressed in transfected cells
T3 sequence (P08173 1-479): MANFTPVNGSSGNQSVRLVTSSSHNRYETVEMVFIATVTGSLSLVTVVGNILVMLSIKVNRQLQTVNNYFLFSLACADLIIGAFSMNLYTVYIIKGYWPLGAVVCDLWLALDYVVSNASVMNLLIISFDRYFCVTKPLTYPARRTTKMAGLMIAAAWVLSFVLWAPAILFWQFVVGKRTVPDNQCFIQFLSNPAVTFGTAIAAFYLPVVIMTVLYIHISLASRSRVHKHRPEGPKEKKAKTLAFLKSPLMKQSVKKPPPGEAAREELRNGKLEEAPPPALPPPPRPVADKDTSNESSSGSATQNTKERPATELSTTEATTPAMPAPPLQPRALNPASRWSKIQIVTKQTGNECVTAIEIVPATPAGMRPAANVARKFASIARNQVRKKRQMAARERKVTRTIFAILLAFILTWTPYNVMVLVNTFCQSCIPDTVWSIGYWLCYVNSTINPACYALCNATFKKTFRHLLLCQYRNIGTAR
Description: as §1, §2

[4] = molecular target: human muscarinic M3 receptor (Homo sapiens, UniProt P20309); experiment: Alphascreen Surefire phospho-ERK1/2 functional assay, M3; details: for Emax: CHO, read-out: M3 % Emax cf. ACh, CHO cells stably expressing human M3; for Emax / M3 % Emax cf. ACh: Emax relative to ACh; for M3 % Emax cf. ACh / pEC50 M3: CHO cells stably expressing human M3; for pEC50 M3: phospho-ERK1/2
Chain of human muscarinic M3 receptor (P20309 whole entry): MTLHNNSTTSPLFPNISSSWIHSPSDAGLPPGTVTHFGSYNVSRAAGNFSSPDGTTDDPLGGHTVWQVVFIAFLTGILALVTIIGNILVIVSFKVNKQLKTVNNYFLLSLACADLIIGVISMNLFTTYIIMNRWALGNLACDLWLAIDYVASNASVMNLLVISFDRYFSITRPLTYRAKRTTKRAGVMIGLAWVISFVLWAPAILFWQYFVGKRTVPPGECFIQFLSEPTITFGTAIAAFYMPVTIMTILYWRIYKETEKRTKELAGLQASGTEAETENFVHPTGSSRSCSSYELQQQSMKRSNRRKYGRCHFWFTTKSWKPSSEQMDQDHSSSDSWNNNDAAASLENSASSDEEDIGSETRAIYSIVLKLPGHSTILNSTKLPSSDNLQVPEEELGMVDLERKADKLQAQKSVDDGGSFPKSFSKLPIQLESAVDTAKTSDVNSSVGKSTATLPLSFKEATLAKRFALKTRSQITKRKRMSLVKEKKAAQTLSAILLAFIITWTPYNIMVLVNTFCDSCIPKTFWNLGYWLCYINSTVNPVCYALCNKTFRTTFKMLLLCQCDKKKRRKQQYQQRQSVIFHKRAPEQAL
Description: as §1, §2

EC50 [1] [nM] | Emax [1] [%] | Emax [2] [%] | EC50 [2] [nM] | EC50 [3] [nM] | Emax [3] [%] | EC50 [4] [nM] | Emax [4] [%] | M1 % Emax cf. ACh [1] | M4 % Emax cf. ACh [3] | M3 % Emax cf. ACh [4] | M2 % Emax cf. ACh [2] | pEC50 M2 [2] | pEC50 M3 [4] | Compound
501 | 84 | 53 | > 20000 | 10 | 84 | > 20000 | 2 |  |  |  |  |  |  | CCOC(=O)N1CCC2(CC(N3CCC4(CC3)OC(=O)N(CC(C)C)C4CC)C2)C1 (single isomer, unassigned) [4-24 Isomer 2 (racemic)]
200 |  | 7 | > 20000 | 50.1 |  | > 20000 |  | (40) % | (43) % | (3) % |  |  |  | CCOC(=O)N1CCC2(CC(N3CCC4(CC3)OC(=O)N3CCCC34)C2)C1 (single isomer, unassigned) [4-44 Isomer 3]
126 | 114 | 54 | > 20000 | 31.6 | 107 | > 20000 | 14 |  |  |  |  |  |  | CCOC(=O)N1CCC2(CC(N3CCC4(CC3)OC(=O)NC4CC(F)(F)F)C2)C1 (single isomer, unassigned) [4-17 Isomer 1 (racemic)]
158 | 106 | 15 | > 20000 | 126 | 108 | > 20000 |  |  |  | (4) % |  |  |  | CCOC(=O)N1CC2(CC(N3CCC4(CC3)OC(=O)NC4CC)C2)C1 (single isomer, unassigned) [2-1 Isomer 2]
158 | 97 | 2 | > 20000 | 200 | 81 | > 20000 | 7 |  |  |  |  |  |  | CCOC(=O)N1CCC2(CC(N3CCC4(CC3)CC(=O)NC4C)C2)C1 (single isomer, unassigned) [3-3 Isomer 2]
398 |  | 3 | > 20000 | 5.01 |  | > 20000 | 7 | (84) % | (138) % |  |  |  |  | CCCN1C(=O)OC2(CCN(C3CC4(CCN(C(=O)OCC)C4)C3)CC2)C1(C)C (single isomer, unassigned) [4-37 Isomer 1]
200 |  |  |  | 50.1 |  |  |  | (104) % | (113) % | (2) % | (23) % | <4.7 | <4.7 | CCOC(=O)N1CCC2(CC(N3CCC4(CC3)OC(=O)N(CC)C4CC)C2)C1 (single isomer, unassigned) [4-22 Isomer 4]
126 | 92 | 143 | > 20000 | 316 | 50 | > 20000 | 5 |  |  |  |  |  |  | CCOC(=O)N1CCC2(CC(N3CCC4(CC3)CNC(=O)N4)C2)C1 (single isomer, unassigned) [5-2 Isomer 2]
> 20000 | 17 | 1 | > 20000 | 39.8 | 84 | > 20000 | 50 |  |  |  |  |  |  | CCCN1C(=O)CC2(CCN(C3CC4(CCN(C(=O)OCC)C4)C3)CC2)N1CC (single isomer, unassigned) [6-9 Isomer 2]
63.1 | 109 | 0 | > 20000 | 20 | 114 | > 20000 | 10 |  |  |  |  |  |  | CCOC(=O)N1CCC2(CC(N3CCC4(CC3)CC(=O)NN4CC)C2)C1 (single isomer, unassigned) [6-2 Isomer 2]
> 20000 |  |  |  | 31.6 |  |  |  | (25) % | (95) % | (1) % | (3) % | <4.7 | <4.7 | CCOC(=O)N1CCC2(CC(N3CCC4(CC3)OC(=O)N(CC(C)C)C4(C)C)C2)C1 (single isomer, unassigned) [4-38 Isomer 2]
316 |  |  |  | 10 |  |  |  | (96) % | (109) % | (3) % | (8) % | <4.7 | <4.7 | CCCN1C(=O)OC2(CCN(C3CC4(CCN(C(=O)OCC)C4)C3)CC2)C1CC (single isomer, unassigned) [4-23 Isomer 4]
126 | 104 | 18 | > 20000 | 126 | 86 | > 20000 | 11 |  |  |  |  |  |  | COC(=O)N1CCC2(CC(N3CCC4(CC3)CNC(=O)O4)C2)C1 (single isomer, unassigned) [4-1 Isomer 2]
79.4 | 87 | 14 | > 20000 | 100 | 50 | > 20000 | 20 |  |  |  |  |  |  | COC(=O)N1CCC2(CC(N3CCC4(CC3)CNC(=O)C4)C2)C1 (single isomer, unassigned) [3-1 Isomer 2]
15.8 | 87 | 3 | > 20000 | 20 | 50 | > 20000 | 2 |  |  |  |  |  |  | CCOC(=O)N1CCC2(CC(N3CCC4(CC3)CNC(=O)C4)C2)C1 (single isomer, unassigned) [3-2 Isomer 2]
> 20000 |  |  | > 20000 | 79.4 |  | > 20000 | 4 | (17) % | (63) % |  | (50) % |  |  | CCOC(=O)N1CCC2(CC(N3CCC4(CC3)OC(=O)NC4CC)C2)C1 (single isomer, unassigned) [4-12 Isomer 1]
794 | 66 | 4 | > 20000 | 31.6 | 88 | > 20000 | 4 |  |  |  |  |  |  | CCOC(=O)N1CCC2(CC(N3CCC4(CC3)OC(=O)NC43CCCC3)C2)C1 (single isomer, unassigned) [4-31 Isomer 2]
12.6 | 110 | 33 | > 20000 | 79.4 | 98 | > 20000 | 53 |  |  |  |  |  |  | CCOC(=O)N1CCC2(CC(N3CCC4(CC3)CC(=O)NC4Cc3ccccc3)C2)C1 (single isomer, unassigned) [3-8 Isomer 2]
2000 | 34 | 2 | > 20000 | 100 | 83 | > 20000 | 1 |  |  |  |  |  |  | CCN1C(=O)OC2(CCN(C3CC4(CCN(C(=O)OC)C4)C3)CC2)C1(C)C (single isomer, unassigned) [4-34 Isomer 2]
2000 |  |  |  | 200 |  |  |  | (71) % | (36) % |  |  |  |  | CCC1NC(=O)CC12CCN(C1CC3(CCN(C(=O)OC)C3)C1)CC2 (single isomer, unassigned) [3-4 Isomer 2]
